Experimental data as given in patent US20120121670A1, “POLYARGININE NANOCAPSULES” (priority 2009, published 2012).

Tested on: NCI-H460 lung cancer cell line
Assay: Cell proliferation inhibition
Format: cell-based
Details: Homo sapiens, docetaxel concentration, Graph Pad Prism 2.1, read-out: IC50 (concentration at which the proliferation of 50% of the population is inhibited)
Experimental: The % of cell viability at different concentrations of DCX is depicted for polyarginine NC, DCX in solution, polyarginine/DCX NC.
In order to evaluate the potential of the PArg nanocapsules encapsulating the docetaxel cytostatic molecule to inhibit the cell proliferation of the NCI-H460 lung cancer cell line the nanocapsules were prepared according to the method described in Example 3. The results shown in FIG. 9 show the great proliferation inhibition capacity of the nanocapsules encapsulating docetaxel in comparison with the free molecule. […] The IC50 values, concentration at which the proliferation of 50% of the population is inhibited, were calculated by means of the Graph Pad Prism 2.1 program (Graph Pad Software).

## CC(=O)O[C@@]12CO[C@@H]1C[C@H](O)[C@@]1(C)C(=O)[C@H](O)C3=C(C)[C@@H](OC(=O)[C@H](O)[C@@H](NC(=O)OC(C)(C)C)c4ccccc4)C[C@@](O)([C@@H](OC(=O)c4ccccc4)[C@H]21)C3(C)C [docetaxel solution, docetaxel]
  IC50: 13.3 nM
